Test results taken from BigSolDB 2.1.

CC(=O)N1CCC[C@H]1C(=O)O
solubility (mole fraction)
Conditions	283.15 K	288.15 K	293.15 K	298.15 K	303.15 K	313.15 K	323.15 K
in 1,4-dioxane	–	0.0237	0.0291	–	0.0416	0.0673	0.13
in 2-butanone	0.0113	–	0.0161	–	0.0237	0.0339	0.0553
in acetone	0.0158	–	0.0247	–	0.0348	0.0484	0.0673
in acetonitrile	0.0159	–	0.0335	–	0.0558	0.131	0.255
in dichloromethane	0.0336	0.0448	0.0609	0.0785	0.0974	–	–
in ethanol	0.0754	–	0.111	–	0.156	0.219	0.278
in ethyl acetate	0.00368	–	0.00634	–	0.0096	0.0133	0.0201
in isobutanol	0.0448	–	0.0643	–	0.106	0.146	0.2
in isopropanol	0.0448	–	0.0732	–	0.099	0.143	0.177
in methanol	0.122	–	0.166	–	0.21	0.291	0.406
in methyl acetate	0.00602	–	0.00997	–	0.0147	0.0213	0.0322
in n-butanol	0.0412	–	0.059	–	0.0877	0.133	0.199
in n-pentanol	0.0377	–	0.0532	–	0.075	0.111	0.158
in n-propanol	0.0961	–	0.14	–	0.195	0.267	0.334
in sec-butanol	0.0429	–	0.062	–	0.0915	0.132	0.189
in water	0.0127	–	0.0188	–	0.0269	0.042	0.0738
